In patent US20240207402A1, “MEANS AND METHODS FOR ENHANCING RECEPTOR-TARGETED GENE TRANSFER” (Deutsches Krebsforschungszentrum Stiftung des öffentlichen …, priority 2021, published 2024):

Tests used:
activated PBMC [1] = experiment: Comparison of tyrosine kinase inhibitors on targeted LV transduction of activated PBMC; format: cell-based, human; details: 5 h; for effect of TKI on transduction by targeted LVs: 50 nM dasatinib, 1 μM imatinib or 30 μM genistein
[2] = system: splenocytes isolated from huNSG mice; format: cell-based, humanized NSG mice; details: CD3-LV(GFP), 50 or 100 nM dasatinib 5 h, three days post transduction
CD25 = format: cell-based, human
human CD3 receptor = format: cell-based; details: 50 or 100 nM dasat., three days post transduction
activated PBMC [3] = experiment: Transduction of fully activated PBMC with targeted LVs in presence of dasatinib (GFP expression, flow cytometry); format: cell-based, human
Nalm-6 cells = format: cell-based, human
CD19+Nalm-6 cells = format: cell-based, human; details: effector:target 0.5:1
activated PBMC [4] = experiment: Vector titers (transducing units/mL) on activated PBMC; format: cell-based, human
Procedure: Transduction was additionally promoted by the transduction enhancer VF-1. Culture medium without dasatinib and Vectofusin-1 was used for control transductions. Transgene expression in T-cells was evaluated 3 and 7 days post transduction by flow cytometry. […] After spinfection, 100 μL of fresh media, either containing the different dasatinib concentrations or without dasatinib, was added and the cells were cultured at 37° C. The medium was changed to fresh TCM with IL-2 or IL-7/15 without dasatinib 3 h, 5 h or 7 h after start of incubation with dasatinib. The cells were further cultured at 37° C., and analyzed for transgene expression 3-4 and 7 days post transduction by flow cytometry. Vector titers were determined in transducing units per milliliter (T U/mL) from LV dilutions showing linear correlation to the number of transgene-positive cells and calculated using following equation.

[5] = system: freshly isolated PBMC exposed solely to IL-7/15; format: cell-based, human
activated PBMC [6] = system: activated PBMC
human whole blood = format: cell-based; details: 100 nM dasatinib, five to six days
activated PBMC [7] = format: cell-based, human
[8] = system: freshly isolated PBMC exposed solely to IL-7/15; details: 100 nM dasatinib, day 4 and 7
activated PBMC [9] = experiment: Binding of CD3-targeted LVs to activated PBMC (anti-His staining); format: cell-based, human; details: 100 nM dasatinib, 7 h and 24 h after start of treatment
Procedure: To understand the mechanism behind the transduction enhancing characteristic of dasatinib, fully activated PBMC were incubated with CD3-targeted LVs, as described above, and analyzed via flow cytometry 7, 24 and 72 h after start of incubation with dasatinib and transduction. Cells were stained with anti-His-PE, allowing the detection of L. Vs bound to the cells.

[10] = system: CD45+ cells isolated from blood; experiment: In vivo transduction in PBMC-humanized NSG mice; details: 10 mg/kg dasatinib i.p. one hour prior to CD3-LV i.v., seven days, not statistically significant
Procedure: For humanization, 1×10^7 ex vivo activated PBMC were transplanted by intravenous (i.v.) tail-vein injection into 8 week old mice. Humanization levels were measured and used for grouping of the mice by flow cytometry from blood taken eleven days post PBMC injection. The following day, 10 mg/kg dasatinib diluted in vehicle (4% DMSO, 33.3% PEG-300, 5% Tween80, 57.7% ddH20) was intraperitoneally (i.p.) administered to the mice, one hour prior to CD3-LV i.v. injection. The animals were sacrificed seven days post vector administration. Blood, spleen and bone marrow were collected and single cell 35 suspensions were prepared and analyzed by flow cytometry. Additionally, genomic DNA was isolated from the single cell suspension and used for vector copy number (VCN) analysis using quantitative polymerase chain reaction (qPCR).

O=c1c(-c2ccc(O)cc2)coc2cc(O)cc(O)c12 [genistein]
effect of TKI on transduction by targeted LVs (activated PBMC [1]): slight increase

Cc1ccc(NC(=O)c2ccc(CN3CCN(C)CC3)cc2)cc1Nc1nccc(-c2cccnc2)n1 [imatinib, 4-[(4-Methylpiperazin-1-yl)methyl]-N-{4-methyl-3-[(4-pyridin-3˜ ylpyrimidin-2-yl)amino]phenyl}benzamid]
effect of TKI on transduction by targeted LVs (activated PBMC [1]): did not lead to an increase

Cc1nc(Nc2ncc(C(=O)Nc3c(C)cccc3Cl)s2)cc(N2CCN(CCO)CC2)n1 [dasatinib, N-(2-Chloro-6-methylphenyl)-2-[[6-[4-(2-hydroxyethyl)-1-piperazinyl]-2-methyl-4-pyrimidinyl]amino]-5 thiazolecarboxamide]
GFP expression of CD45+ splenocytes in presence of dasatinib [2]: around 25%
CD25-expression upon activating antibodies or CD3-LVs in presence of dasatinib (CD25): did not cause an increase
MFI of the CD3 receptor in presence of CD3-LV and dasatinib (human CD3 receptor): only slightly reduced
GFP-expression, TR66-LV in presence of dasatinib (activated PBMC [3]): 30%
T-cells transduced by CD3-LVs in presence of dasatinib (activated PBMC [3]): up to 70%
effect of pretreatment on cell-directed gene transfer using CD3-LVs (activated PBMC [3]): dramatically increases
effect on CD4-LV transduction (activated PBMC [3]): slight increase
effect on transduction by CD8-LV and VSV-LV (activated PBMC [3]): not affected
increase in transduction (maximum in this setup) (activated PBMC [3]): 3 fold
increase in transduction compared to untreated cells (activated PBMC [3]): 1.6 fold
increase in transduction compared with Vectofusin-1 (activated PBMC [3]): even stronger than by the transduction enhancer Vectofusin-1
less transduction after short incubation compared to longer incubation time (activated PBMC [3]): 10-35%
stability of gene transfer (activated PBMC [3]): remained stable
transduction enhancement at lowest concentration (activated PBMC [3]): not sufficient to enhance transduction
transduction for TR66-LV, VF-1 added in presence of dasatinib (activated PBMC [3]): ~70%
overall CAR expression compared to untreated cells (Nalm-6 cells; 50 nM dasatinib during transduction with CD3-LV(CAR)): increased
target cell killing by CAR T cells generated in presence of dasatinib (Nalm-6 cells; 50 nM dasatinib, day 2 up to day 8, 1:1 ratio): complete target cell killing
CAR T cell exhaustion and phenotype markers dependent on dasatinib treatment (Nalm-6 cells; day 8 of the killing assay): no difference
tumor killing (dead target cells) by CAR T cells generated in presence of dasatinib (CD19+Nalm-6 cells; 4 h): around 40%
Nalm-6 cells killed by CD19-CAR T cells (CD19+Nalm-6 cells; 24 h): nearly all
increase of titers of CD3-LV(CAR) in presence of dasatinib (activated PBMC [4]; CD19 CAR, three days post transduction): 3-16 fold
titers of CD3-LV(GFP) in presence of dasatinib (activated PBMC [4]; with dasatinib): 1e7-1e8 T.U./mL
TR66-LV mediated gene transfer, VF-1 added to dasatinib-treated cells ([5]; IL-7/15 only PBMC, 100 nM dasatinib plus VF-1): 10%
improvement of CD3-LV transduction of cytokine-only stimulated T-cells ([5]; in presence of dasatinib (summary)): 7 fold
increase of transgene expression, transduction with CD3-LV (activated PBMC [1]; 50 nM dasatinib or 1 μM bosutinib, GFP three days post transduction): ~4 fold
effect of TKI on transduction by targeted LVs (activated PBMC [1]): strongest increase
viability in presence of dasatinib compared to untreated cells (activated PBMC [6]; activated PBMC, 100 nM dasatinib, day 3 and 7): not compromised
viability of the cells at high dasatinib concentration (activated PBMC [6]; dasatinib concentrations above 50 nM, 3 days post transduction): dropped slightly
GFP-expression of CD3+ cells, CD3-LV in presence of dasatinib (human whole blood): above 2%
CAR transduction in presence of VF-1 with dasatinib (activated PBMC [7]): 13%
CAR-expression, CD3-LV transduced cells, dasatinib present (activated PBMC [7]): up to 10%
cell viability of non-activated cells [8]: did not negatively affecT-cell viability
amount of CD3-LVs bound to the cells (activated PBMC [9]): substantially increased
GFP-expression and vector integration in genomic DNA of blood cells in vivo [10]: clear tendency
